Results on one compound are retold here after patent US8614021B2, “Agents for enhanced charge transport across microbial membranes” (The United States of America as represented by the …, priority 2010, dated 2013).

Where two headings read alike, the source gives them in different places.

The nature of series [1]: UV-Vis absorption and photoluminescence (PL) spectroscopy in solvents of varying polarity. The following applies: for η (quantum efficiency): relative to a fluorescein standard at pH 12.
Description: General photophysical and solvatochromatic features of the neutral (DSSN, DSBN) and charged (DSSN+, DSBN+) versions of each chromophore were probed by using UV-Vis absorption and photoluminescence (PL) spectroscopies.
For series [2] the following is noted: DMSO; value abstracted from reference (Woo et al. JACS 2005); cited from earlier work.

Regarding `ICCCCCCN(CCCCCCI)c1ccc(C=Cc2ccc(C=Cc3ccc(N(CCCCCCI)CCCCCCI)cc3)cc2)cc1` [DSBN, 1,4-bis(4′-(N,N-bis(6″-iodohexyl)amino)styryl)benzene], the λabs was 419 nm in series [1] (DMSO), 410 nm in series [1] (THF) and 410 nm in series [1] (toluene). Also, the λem in series [1] (DMSO) turned out to be 516 nm; in series [1] (THF), 466 nm; in series [1] (toluene) it was 454 nm. Further, the “η (quantum efficiency)” value in series [1] (DMSO) was 0.81; in series [1] (THF), 0.92; in series [1] (toluene), 0.98. Further, the “εmax (molar extinction coefficient at λmax)” value in series [1] (THF) is recorded as 8.5 Lmol^−1cm^−1 × 10^−4; in series [1] (toluene), 8.4 Lmol^−1cm^−1 × 10^−4; in series [2] it was 7.8 Lmol^−1cm^−1 × 10^−4.
